Data reported in ChEMBL document CHEMBL5247678, “Design, Synthesis, and Structure-Activity Relationships of Biaryl Anilines as Subtype-Selective PPAR-alpha Agonists” (ACS Med Chem Lett, 2023).

Columns and labels:
[1] = Cytotoxicity against human RPE cells measured upto 50 uM; format: toxicity, cell-based
[2] = Cytotoxicity against human RPE cells assessed as cell viability at 50 uM; format: toxicity, cell-based

Row | SMILES | Activity [1] | Activity [2]
1 | O=C(O)c1cc(F)cc(NCc2ccc(-c3ccccc3C(F)(F)F)cc2)c1 | Non-Toxic | 
2 | O=C(O)c1cc(F)cc(NCc2cn(-c3ccc(C(F)(F)F)cc3)nn2)c1 | Non-Toxic | Toxic
3 | O=C(O)c1cc(F)cc(NCc2ccc(-c3ccccc3)cc2)c1 | Non-Toxic | 
4 | O=C(O)c1cc(F)cc(NCc2ccc(-c3ccc(C(F)(F)F)cc3)cc2)c1 | Non-Toxic | 
